{"source": "patent US11261210B2", "about": "“Glycosylated antitumor ether lipids as novel cancer stem cell cytotoxic agents” (UNIVERSITY OF MANITOBA, priority 2012, dated 2022)", "key": {"BT-474 cancer stem cells": {"test_system": "BT-474 cancer stem cells", "assay": "BT-474 cancer stem cell spheroid formation", "format": "cell-based, human", "details": "BT474 cancer stem cells, FIG. 1B", "experimental": "FIG. 1. A. Effect of β-C-Gln (β-AC1) on BT-474 cancer stem cell spheroid formation. BT-474 cancer stem cells were obtained by staining BT474 cells for ALDH1 and sorting the stained from unstained cells by flow cytometry. The ALDH1 stained cells were grown in ultra-low adhesion 6-well plates in mammocult medium for 7 days. The spheroids were isolated and trypsinised to generate single cells. The cells were then seeded for 2 days in ultra-low adhesion 6-well plates, and subsequently incubated in the absence or presence of C-Gln for up to 12 days. The media was replenished after 6 days. B. Effect of β-O-Gln (β-AO1), α-O-Gln (α-AO1), or ET-18-OCH3 on BT-474 cancer stem cell spheroid formation.\nBreast cancer stem cell enriched cell population was obtained by staining breast cancer cell lines BT-474 and JIMT-1 for aldehyde dehydrogenase 1 (ALDH1) using the assay kit from Stem Cell Technologies (Vancouver BC, Canada) according to the instructions of the manufacturer with the appropriate controls. […] The cell numbers were determined with a Coulter ZM counter and the cells were seeded into the appropriate low adhesion tissue culture ware for various studies. […]"}, "[1]": {"test_system": "JIMT1 stem cell tumorspheres", "assay": "Viability of JIMT1 stem cell tumorspheres (MTS assay)", "format": "cell-based, human", "details": "6 days", "experimental": "FIG. 8. Effect of β-O-Gln, α-O-Gln, β-C-Gln and ET-18-OCH3 on the viability of JIMT1 stem cell tumorspheres. BT-474 cancer stem cells were grown for 7 days in ultra low adhesion 6-well plates. The tumorspheres formed were harvested, trypsinised and cell numbers were determined. Equal numbers of cells were dispersed into 48-well non-treated plates in mammocult medium and incubation was under static conditions. Wells with only medium but no cells were treated in an identical manner to serve as blanks. After spheres were formed, O-Gln, C-Gln or ET-18-OCH3 (0, 10, 20, 30 μM) were added and incubation was for a total of 6 days. At the end of the incubation, the MTS reagent was added to each well and the plates were mixed in a nutator in a 5% CO2 incubator for 4 h. The absorbance of each well was read at 470 nm. The results are the means±standard deviation of 4 independent determinations.\nCell viability assay: Cell viability was determined by the Cell Titre 96 Aqueous One solution proliferation assay ((MTS assay; Promega) according to the instructions of the manufacturer.\nThe viability of cells in spheroids incubated with 20 or 30 μM ET-18-OCH3 was between 30-40% of controls."}, "[2]": {"test_system": "JIMT-1 stem cell spheroids", "assay": "Morphology of JIMT-1 stem cell spheroids", "format": "cell-based, human", "experimental": "FIG. 7. A. Effect of β-O-Gln, β-C-Gln or ET-18-OCH3 on morphology of JIMT-1 stem cell spheroids. B. Effect of β-O-Gln, α-O-Gln or ET-18-OCH3 on morphology of JIMT-1 stem cell spheroids. JIMT-1 cancer stem cells were grown for 7 days in ultra low adhesion 6 well plates. The tumorspheres formed were harvested, trypsinised and cell numbers were determined. Equal numbers of cells were dispersed into 48-well non-treated plates in mammocult medium and incubated in a CO2 incubator under static conditions. After spheres were formed, O-Gln, C-Gln or ET-18-OCH3 were added (0, 10, 20 and 30 μM) and incubation was for a total of 6 days with media supplementation after 3 days. Images for FIG. 7A were taken at day 0 and after 72 h following addition of the compounds. Images for FIG. 7B were taken after 6 days incubation with the compounds.\nThe above studies were repeated with JIMT-1 spheroids."}, "cancer stem cells": {"test_system": "cancer stem cells", "assay": "Tumorsphere formation by freshly sorted cancer stem cells", "format": "cell-based, human", "details": "added to freshly sorted cancer stem cells, 10 μM and above, 6 days", "text": "Breast cancer stem cell enriched cell population was obtained by staining breast cancer cell lines BT-474 and JIMT-1 for aldehyde dehydrogenase 1 (ALDH1) using the assay kit from Stem Cell Technologies (Vancouver BC, Canada) according to the instructions of the manufacturer with the appropriate controls. BT-474 is a ductal carcinoma cell line (Lasfargues E Y, Coutinho W G, Dion A S (1979) A human breast tumor cell line (BT-474) that supports mouse mammary tumor virus replication. In Vitro 15, 723-729) while JIMT-1 is a carcinoma cell line that is resistant to herceptin (Tanner M, Kapanen A J, Junttila T, Raheem O, Grenman S, Elo J, Elenius K, Isola J (2004). Characterization of a novel cell line established from a patient with herceptin-resistant breast cancer. Mol Cancer Ther 3, 1585-1592). Following the staining, the cells stained for ALDH1 were sorted from the bulk population by flow cytometry on a 4 laser MoFloXPP high speed/pressure cell sorter. The cells were pelleted by centrifugation, resuspended in supplemented Mammocult medium (Stem Cell Technologies) and dispersed into ultra-low adhesive 6-well plates or 35 mm dishes for 7 days to allow the formation of spheroids (mammospheres). After 7 days, the spheres were separated from single cells (dead non-stem cells) by sieving the contents of the well through a […] nylon cell strainer (BD Falcon). The spheres retained in the sieve are washed with Hanks buffer and subsequently trypsinised to obtain a single cell suspension of cancer stem cells. The cell numbers were determined with a Coulter ZM counter and the cells were seeded into the appropriate low adhesion tissue culture ware for various studies.\nAEL solutions in ethanol were diluted into supplemented mammocult medium generally at twice the desired final concentration. A volume equal to that in the wells was added to dilute the drug to the desired concentration in each well. Subsequently any further addition of drug to the wells, utilized AEL solution prepared at the desired concentration. […]"}, "BT474 cancer stem cells": {"test_system": "BT474 cancer stem cells", "assay": "Trypan blue dye exclusion viability of BT474 cancer stem cells", "format": "cell-based, human", "details": "BT474 cancer stem cells incubated with compound", "experimental": "Trypan blue dye exclusion assay using the TC10 automated cell counter (BioRad) was also used for some studies.\nWe investigated the effects of the GAELs and the ALPET-18-OCH3 on the ability of the cancer stem cells to form tumorspheres. […] This was a concentration dependent event and at concentrations greater than 10 μM spheroid formation was completely disrupted."}, "[3]": {"details": "cells with a functioning apoptotic pathway; cited from earlier work"}}}
{"smiles": "CCCCCCCCCCCCCCCCOC[C@H](CO[C@@H]1O[C@H](CO)[C@@H](O)[C@H](O)[C@H]1N)OC", "note": "[β-O-Gln, 1-O-hexadecyl-2-O-methyl-3-O-(2′-amino-2′-deoxy-β-D-glucopyranosyl)-sn-glycerol]", "values": [{"measurement": "spheroid formation", "setting": "BT-474 cancer stem cells", "result": "unable to form spheroids"}, {"measurement": "loss of viability", "setting": "[1]; 10 μM", "result": 90, "unit": "%"}, {"measurement": "loss of viability", "setting": "[1]; 20 or 30 μM", "result": "Complete loss of viability"}, {"measurement": "spheroid morphology and compactness", "setting": "[2]; 10-30 μM, after 3 days, FIG. 7A", "result": "profound effect on the morphology and compactness"}, {"measurement": "spheroid integrity", "setting": "[2]; 6 days, FIG. 7B", "result": "complete disintegration of the spheroids"}, {"measurement": "spheroid formation", "setting": "cancer stem cells", "result": "unable to form spheroids"}, {"measurement": "viability (trypan dye exclusion)", "setting": "BT474 cancer stem cells", "result": "not viable"}, {"measurement": "caspase 3 or 9 activation during cell death", "setting": "[3]", "result": "without activation of caspase 3 or 9"}]}
